The values below come from patent US6103724A, “2-methoxyphenylpiperazine derivatives” (Richter Gedeon Vegyeszeti Gyar Rt., priority 1996, dated 2000).

Where a name gives a salt, the structure may show the parent alone.

Assay [1] has as its target D-2 dopamine receptor (Homo sapiens, UniProt P14416). Put plainly: biochemical. It is filed as binding. The note with it: 0.5 nM 3H-spiperone.
Assay [2] has as its system APO-induced sniffing. Put plainly: Inhibition of APO-induced sniffing stereotypy. It counts as in vivo, CD-1 (Charles River) male mice. The note with it: for ED50: Mus musculus, po, mice, 1 mg/kg s.c. apomorphine 60 min after pretreatment; for Sniff./Climb. ratio: ratio of ED50 sniffing to ED50 climbing, p.o.
Assay [3] deals with T1, 5-HT1A subtype of serotonin receptor (Rattus norvegicus, UniProt P19327).
T1 sequence (P19327 1-422): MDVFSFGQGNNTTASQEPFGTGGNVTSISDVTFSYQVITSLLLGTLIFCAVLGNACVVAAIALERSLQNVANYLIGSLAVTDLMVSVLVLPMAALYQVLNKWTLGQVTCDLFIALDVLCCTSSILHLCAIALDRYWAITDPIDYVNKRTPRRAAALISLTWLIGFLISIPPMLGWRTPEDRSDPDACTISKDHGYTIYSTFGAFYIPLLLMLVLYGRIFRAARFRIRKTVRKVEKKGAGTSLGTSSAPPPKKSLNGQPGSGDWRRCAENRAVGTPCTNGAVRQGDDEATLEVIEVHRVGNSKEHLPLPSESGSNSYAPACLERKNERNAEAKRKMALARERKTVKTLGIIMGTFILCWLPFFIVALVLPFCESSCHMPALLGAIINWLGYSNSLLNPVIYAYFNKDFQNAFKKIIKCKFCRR
Put plainly: biochemical. It is filed as binding. The following applies: for IC50: 0.5 nM 3H-8-OH-DPAT; for D-2/5-HT1A ratio: ratio of receptor IC50 values.
Experimental: Determination of the 5-HT1A subtype of serotonin receptor was carried out by a modification [M. D. Hall et al.: J. Neurochem. […] 0.5 nM ^3 H-8-OH-DPAT was used as ligand, where non-specific binding was determined by using 10 μM serotonin.

Assay [4] concerns the target α-1 receptor. Put plainly: Alpha-1 receptor binding (3H-prazosin). The protocol: The non-specific binding was measured with 10 μM (±)-phentolamine.
The subject of assay [5] is APO-induced climbing. Description: Inhibition of apomorphine (APO) induced climbing. It is filed as in vivo, CD-1 (Charles River) male mice. The note with it: for ED50: Mus musculus, po, mice, 1 mg/kg s.c. apomorphine 60 min after pretreatment. As for the experimental part:
CD-1 (Charles River) male mice weighing 22 to 24 g were pretreated with 1% Tween 80 solution of the compound to be tested. […] Six animals were used in each group. At 60 minutes after pretreatment, the animals were treated subcutaneously with 1 mg/kg of apomorphine (APO). From the 10th to 25th minute following APO treatment the animals were scored in each minute as follows: 0: all the four legs of the animal are on the ground; 1: the animal climbs on the grid by its both forelegs; 2: the animal climbs on the grid by all its four legs. The inhibitory effect was related to the APO control group, which could achieve 32 scores as a maximum.

Chain of D-2 dopamine receptor (P14416 whole entry): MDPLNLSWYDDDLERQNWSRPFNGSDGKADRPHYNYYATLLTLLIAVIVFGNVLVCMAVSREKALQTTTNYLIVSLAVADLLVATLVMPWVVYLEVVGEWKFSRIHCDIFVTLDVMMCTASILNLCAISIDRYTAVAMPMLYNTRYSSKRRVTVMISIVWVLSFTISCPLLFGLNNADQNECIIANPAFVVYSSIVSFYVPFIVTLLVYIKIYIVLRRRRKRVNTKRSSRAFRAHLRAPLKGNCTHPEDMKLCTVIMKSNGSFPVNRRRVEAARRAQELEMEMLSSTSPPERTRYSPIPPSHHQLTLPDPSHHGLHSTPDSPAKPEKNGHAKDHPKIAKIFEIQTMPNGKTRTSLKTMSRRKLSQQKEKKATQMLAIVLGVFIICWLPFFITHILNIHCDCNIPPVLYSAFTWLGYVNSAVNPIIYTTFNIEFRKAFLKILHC

For the molecule `COc1ccccc1N1CCN(CCOc2ccc(-c3cn4ccccc4n3)cc2)CC1` [Compound 4510408, 1-(2-Methoxyphenyl)-4-{2-[4-(2-imidazo[1,2-a]pyridinyl)phenoxy]ethyl}piperazine], the IC50 in assay [1] amounted to 56 nM; in assay [3] it was 70 nM; in assay [4], 36 nM. Moreover, the 50% effective dose (ED50) in assay [2] was around 10 mg/kg; in assay [5], 2.4 mg/kg. In assay [2], the Sniff./Climb. ratio was 4.1. Moreover, the “ED50 values (climbing) compared with clozapine, in words” value in assay [5] (oral, relative to clozapine) is on record as “lower than or equal to that of clozapine”.
For the molecule `COc1ccccc1N1CCN(CCCCOc2ccc(-c3cn4cccnc4n3)cc2)CC1` [Compound 4510645, 1-(2-Methoxyphenyl)-4-{4-[4-(2-imidazo[1,2-a]pyrimidinyl)phenoxy]butyl}piperazine], the figures for the IC50 in assay [1], in assay [3] and in assay [4] were 55 nM, 12 nM and 22 nM, respectively. Also, the ED50 was above 30 mg/kg in assay [2] and 20.5 mg/kg in assay [5]. Also, the Sniff./Climb. ratio in assay [2] was above 1.5.
As to `COc1ccccc1N1CCN(CCCOc2ccc(-c3cn4cccnc4n3)cc2)CC1` [Compound 4510424, 1-(2-Methoxyphenyl)-4-{3-[4-(2-imidazo[1,2-a]pyrimidinyl)phenoxy]propyl}piperazine], the values for the IC50 in assay [1], in assay [3] and in assay [4] were 34 nM, 66 nM and 30 nM, respectively. The ED50 in assay [2] is above 30 mg/kg; in assay [5] it was 8.9 mg/kg. Moreover, the Sniff./Climb. ratio in assay [2] is recorded as 3.4.
Regarding `COc1ccccc1N1CCN(CCOc2ccc(-c3cn4cccnc4n3)cc2)CC1` [Compound 4510411, 1-(2-Methoxyphenyl)-4-{2-[4-(2-imidazo[1,2-a]pyrimidinyl)phenoxy]ethyl}piperazine], the results for the IC50 in assay [1], in assay [3] and in assay [4] were 133 nM, 10 nM and 63 nM, respectively. Further, the figures for the ED50 in assay [2] and in assay [5] were above 30 mg/kg and 3.4 mg/kg, respectively. In addition, in assay [2], the Sniff./Climb. ratio was above 8.8. Also, the “ED50 values (climbing) compared with clozapine, in words” value in assay [5] (oral, relative to clozapine) is recorded as “lower than or equal to that of clozapine”.
As for `COc1ccccc1N1CCN(CCOc2ccc(-c3cn4c(n3)SCC4)cc2)CC1` [Compound 4510471, 1-(2-Methoxyphenyl)-4-{2-[4-[6-(2,3-dihydroimidazo[2,1-b]thiazol)-yl]phenoxy]ethyl}piperazine trihydrochloride], the IC50 in assay [1] was 117 nM; in assay [3] it was 29 nM; in assay [4], 75 nM. The ED50 in assay [2] is above 30 mg/kg; in assay [5], 6.3 mg/kg. In addition, the Sniff./Climb. ratio in assay [2] turned out to be 4.8.
Take `COc1ccccc1N1CCN(CCCOc2ccc(-c3cn4ccsc4n3)cc2)CC1` [Compound 4510472, 1-(2-Methoxyphenyl)-4-{3-[4-[6-imidazo[2,1-b]thiazolyl)phenoxy]propyl}piperazine]: the IC50 in assay [1] was found to be 23 nM; in assay [3] it was 96 nM; in assay [4] it was 56 nM. Further, the ED50 is around 10 mg/kg in assay [2] and 3.4 mg/kg in assay [5]. Moreover, in assay [2], the Sniff./Climb. ratio was determined as 2.9. Further, the “ED50 values (climbing) compared with clozapine, in words” value in assay [5] (oral, relative to clozapine) is “lower than or equal to that of clozapine”.
In the case of `COc1ccccc1N1CCN(CCCCOc2ccc(-c3cn4c(n3)SCC4)cc2)CC1` [Compound 4510991, 1-(2-Methoxyphenyl)-4-{4-[4-[6-(2,3-dihydroimidazo[2,1-b]thiazol)-yl]phenoxy]butyl}piperazine], the results for the IC50 in assay [1], in assay [3] and in assay [4] were 56 nM, 9 nM and 16 nM, respectively. In addition, the ED50 in assay [2] was above 30 mg/kg; in assay [5], around 30 mg/kg. In addition, the Sniff./Climb. ratio in assay [2] is above 1.0. The “activity on 5-HT1A receptor subtypes, in words” value in assay [3] is “especially strong activity”.
Consider `COc1ccccc1N1CCN(CCCOc2ccc(-c3cn4ccccc4n3)cc2)CC1` [Compound 4510067, 1-(2-Methoxyphenyl)-4-{3-[4-(2-imidazo[1,2-a]pyridinyl)phenoxy]propyl}piperazine], for which the figures for the IC50 in assay [1], in assay [3] and in assay [4] were 17 nM, 202 nM and 57 nM, respectively. Moreover, the ED50 in assay [2] turned out to be 16.2 mg/kg; in assay [5], 7.2 mg/kg. Also, the Sniff./Climb. ratio in assay [2] turned out to be 2.3.
Take `COc1ccccc1N1CCN(CCCCOc2ccc(-c3cc4ccccn4c3)cc2)CC1` [Compound 4510613, 1-(2-Methoxyphenyl)-4-{4-[4-(2-indolizinyl)phenoxy]butyl}piperazine]: the IC50 in assay [1] was found to be 99 nM; in assay [3] it was 243 nM; in assay [4], 842 nM. Further, the figures for the ED50 in assay [2] and in assay [5] were above 30 mg/kg and 14.8 mg/kg, respectively. Further, the Sniff./Climb. ratio in assay [2] is listed as above 2.0.
For the molecule `COc1ccccc1N1CCN(CCOc2ccc(-c3cn4ccsc4n3)cc2)CC1.Cl.Cl.Cl` [Compound 4510470, 1-(2-Methoxyphenyl)-4-{2-[4-[6-imidazo[2,1-b]thiazolyl]phenoxy]ethyl}piperazine trihydrochloride], the values for the IC50 in assay [1], in assay [3] and in assay [4] were 73 nM, 38 nM and 101 nM, respectively. The ED50 in assay [2] was found to be 4.5 mg/kg; in assay [5], 0.8 mg/kg. Besides, the Sniff./Climb. ratio in assay [2] was 5.6. The D-2/5-HT1A ratio in assay [3] is given as 1.9. The “oral activity as compared to clozapine” value in assay [5] (oral, relative to clozapine) is on record as “ten-fold”.
As for `COc1ccccc1N1CCN(CCCOc2ccc(-c3cc4ccccn4c3)cc2)CC1.Cl.Cl` [Compound 4510423, 1-(2-Methoxyphenyl)-4-{3-[4-[2-indolizinyl)phenoxy]propyl}piperazine dihydrochloride], the IC50 in assay [1] was 77 nM; in assay [3], 1000 nM; in assay [4] it was 359 nM. For the same molecule, the figures for the ED50 in assay [2] and in assay [5] were above 10 mg/kg and 4.1 mg/kg, respectively. In assay [2], the Sniff./Climb. ratio is given as above 2.4.
On to `COc1ccccc1N1CCN(CCOc2ccc(-c3cc4ccccn4c3)cc2)CC1.Cl.Cl` [Compound 4510407, 1-(2-Methoxyphenyl)-4-{2-[4-(2-indolizinyl)phenoxy]ethyl}piperazine dihydrochloride], for which the IC50 in assay [1] came to 258 nM; in assay [3], 802 nM; in assay [4], 542 nM. Besides, in assay [5], the ED50 was above 30 mg/kg.
On the same counts, the results for `COc1ccccc1N1CCN(CCCCOc2ccc(-c3cn4ccccc4n3)cc2)CC1` [Compound 4510915, 1-(2-Methoxyphenyl)-4-{4-[4-(2-imidazo[1,2-a]pyridinyl)phenoxy]butyl}piperazine] are 69 nM, 21 nM, 34 nM and 10.7 mg/kg.
In the case of `COc1ccccc1N1CCN(CCCOc2ccc(-c3cn4c(n3)SCC4)cc2)CC1` [Compound 4510473, 1-(2-Methoxyphenyl)-4-{3-[4-[6-(2,3-dihydroimidazo[2,1-b]thiazol)yl]phenoxy]jpropyl}piperazine], the IC50 in assay [1] was 29 nM; in assay [3], 122 nM; in assay [4], 48 nM. The ED50 in assay [2] was above 30 mg/kg; in assay [5], 15.3 mg/kg. In assay [2], the Sniff./Climb. ratio is above 2.0.
As to `COc1ccccc1N1CCN(CCCCOc2ccc(-c3cn4ccsc4n3)cc2)CC1.Cl.Cl.Cl` [Compound 4510916, 1-(2-Methoxyphenyl)4-{4-[4-[6-imidazo[2,1-b]thiazolyl]phenoxy]butyl}piperazine trihydrochloride], inhibition in assay [1] was half-maximal at 55 nM (IC50). In addition, in assay [2], the ED50 is around 30 mg/kg and the Sniff./Climb. ratio is on record as above 4.9. For the same molecule, in assay [3], the “activity on 5-HT1A receptor subtypes, in words” value is “especially strong activity”; the IC50 is 8 nM; the D-2/5-HT1A ratio amounted to 6.9. The IC50 in assay [4] is 28 nM. Moreover, the median effective dose (ED50) in assay [5] worked out at 6.1 mg/kg.
